# Measurements published in US12186283B2, “Bismuth-thiol compositions and methods of use” (Microbion Corporation, priority 2018, dated 2025).
# Like-named read-outs stand apart in the source and are kept apart here. Marks after values point to notes of the source that are not given here.
# Tests used:
# P. aeruginosa [1] = experiment: Broth microdilution MIC (Example 10)
# Escherichia coli [2] = conditions: cited from earlier work
# Pseudomonas aeruginosa = conditions: P. aeruginosa ATCC 27853, QC organism; cited from earlier work
# Klebsiella pneumoniae = experiment: Broth microdilution MIC (Example 12)
# Escherichia coli [3] = experiment: Broth microdilution MIC (Example 12)
# [4] = test system: Burkholderia cepacia complex; experiment: Broth microdilution MIC (Example 10); conditions: initial MIC testing
# [5] = test system: Burkholderia cepacia complex; experiment: Checkerboard FIC assay, BisEDT with CF agents (Example 10); format: cell-based, Burkholderia spp.; conditions: agent alone, as observed during FIC testing
# P. aeruginosa [6] = conditions: P. aeruginosa isolate 103, CLSI QC range in parenthesis, cited from earlier work
# S. aureus ATCC 29213 [7] = conditions: control strain ATCC 29213 S. aureus; per CLSI M100-S24 or provided by Microbion; cited from earlier work
# N. gonorrhoeae = experiment: Agar dilution MIC (Example 11); format: cell-based, Neisseria gonorrhoeae; conditions: QC isolate, ciprofloxacin-resistant and ceftriaxone non-susceptible isolates
# [8] = test system: Burkholderia spp. (B. cepacia complex); experiment: MIC against CF isolates (Example 5); format: cell-based; conditions: Table 4A; strain AU197, B. cenocepacia (B cepacia complex)
# Acinetobacter baumannii = experiment: Broth microdilution MIC (Example 11); format: cell-based; conditions: A. baumannii MMX 3373; Sensitive
# [9] = test system: Achromobacter spp. biofilm; experiment: Activity against biofilms; conditions: tested up to 250 μg/mL
# E. coli ATCC 25922 [10] = experiment: Broth microdilution MIC, QC organism (Example 13, Table 110); format: cell-based, Escherichia coli
# Source text: MECs were only reported where observed.
# [11] = test system: Pseudomonas aeruginosa strain PA01; experiment: Bacterial killing curves with and without 10% CF patient sputum; conditions: for bactericidal activity: PA01, 0.1 μg/mL; for effect of CF patient sputum on bactericidal activity: PA01, 10% CF patient sputum
# Candida krusei = experiment: Broth microdilution MIC, yeast (Example 13); format: cell-based; conditions: for MIC: Pichia kudriavzevii
# M. avium = experiment: MIC against CF isolates (Example 5); format: cell-based; conditions: Mycobacterium avium, strain MAC101, M. avium, MAC reference strain, blood isolate from HIV patient
# [12] = Rat single-dose PK: whole blood BisEDT (bismuth by ICP-MS)
# E. coli ATCC 25922 [13] = conditions: control strain ATCC 25922 E. coli; per CLSI M100-S24 or provided by Microbion; cited from earlier work
# S. aureus ATCC 29213 [14] = conditions: S. aureus ATCC 29213, QC organism; cited from earlier work
# P. aeruginosa [15] = conditions: control strain ATCC 27853 P. aeruginosa; cited from earlier work
# [16] = E. coli ATCC 25922, QC organism
# [17] = E. coli ATCC 35218, QC organism
smiles,measurement,setting,value
C[C@@H](O)[C@H]1C(=O)N2C(C(=O)O)=C(S[C@@H]3CN[C@H](C(=O)N(C)C)C3)[C@H](C)[C@H]12 [MEM],MIC,"P. aeruginosa [1]; P. aeruginosa isolate 103 (ATCC 25922), QC strain, initial MIC testing",1 µg/mL
same,MIC,"P. aeruginosa [1]; P. aeruginosa isolate 103 (ATCC 25922), during FIC testing, each agent tested alone for QC, one replicate",1 µg/mL
same,MIC,"P. aeruginosa [1]; P. aeruginosa isolate 1497 (TOB-R, AMK-R, CIP-I, AZT-R, COL-R), initial MIC testing",0.06 µg/mL
same,MIC,"P. aeruginosa [1]; P. aeruginosa isolate 1530 (TOB-R, AMK-R, CIP-R), initial MIC testing",0.5 µg/mL
same,MIC,"P. aeruginosa [1]; P. aeruginosa isolate 1553 (TOB-R, AMK-R, CIP-R), initial MIC testing",0.5 µg/mL
same,MIC,"P. aeruginosa [1]; P. aeruginosa isolate 6322 (MEM-R, TOB-R, AMK-R, CIP-R, AZT-R), initial MIC testing",16 µg/mL
same,MIC,"P. aeruginosa [1]; P. aeruginosa isolate 6977 (MEM-I, TOB-R, CIP-R, AZT-I), initial MIC testing",4 µg/mL
same,MIC,"P. aeruginosa [1]; P. aeruginosa isolate 7745 (MEM-R, CIP-R, AZT-R), initial MIC testing",16 µg/mL
same,MIC,"P. aeruginosa [1]; P. aeruginosa isolate 7754 (MEM-R, TOB-R, CIP-R, AZT-I), initial MIC testing",32 µg/mL
same,MIC,"P. aeruginosa [1]; P. aeruginosa isolate 7762 (MEM-I, CIP-I), initial MIC testing",4 µg/mL
same,MIC,"P. aeruginosa [1]; P. aeruginosa isolate 7871 (MEM-R, AZT-I), initial MIC testing",8 µg/mL
same,MIC,"P. aeruginosa [1]; P. aeruginosa isolate 7874, initial MIC testing",1 µg/mL
same,MIC,"P. aeruginosa [1]; P. aeruginosa isolate 7886 (MEM-R, CIP-R, AZT-R), initial MIC testing",32 µg/mL
same,MIC,"P. aeruginosa [1]; P. aeruginosa isolate 8797 (MEM-R, TOB-R, AMK-R, CIP-R, AZT-R, COL-R), initial MIC testing",32 µg/mL
same,MIC,"P. aeruginosa [1]; P. aeruginosa isolate 8798 (MEM-R, TOB-R, AMK-R, CIP-R, AZT-R, COL-R), initial MIC testing",64 µg/mL
same,MIC,"P. aeruginosa [1]; P. aeruginosa isolate 9108 (CIP-R, AZT-I), initial MIC testing",0.5 µg/mL
same,"MIC, QC range",Escherichia coli [2]; [16],(0.008-0.06) μg/mL
same,"MIC, QC range",Escherichia coli [2]; [17],(0.008-0.06) μg/mL
same,"MIC, QC range",Pseudomonas aeruginosa,(0.12-1) μg/mL
same,MIC,"Klebsiella pneumoniae; K. pneumoniae ATCC BAA-1705, QC organism",8 µg/mL
same,MIC,"Klebsiella pneumoniae; Klebsiella pneumoniae ATCC BAA-1705, ESBL/KPC",8 µg/mL
same,MIC,"Klebsiella pneumoniae; Klebsiella pneumoniae CDC 112, KPC",>8 µg/mL
same,MIC,"Klebsiella pneumoniae; Klebsiella pneumoniae CDC 113, ESBL/KPC",>8 µg/mL
same,MIC,"Klebsiella pneumoniae; Klebsiella pneumoniae CDC 115, ESBL/KPC",>8 µg/mL
same,MIC,"Klebsiella pneumoniae; Klebsiella pneumoniae CDC 120, ESBL/KPC",>8 µg/mL
same,MIC,"Klebsiella pneumoniae; Klebsiella pneumoniae CDC 126, ESBL/KPC",4 µg/mL
same,MIC,"Klebsiella pneumoniae; Klebsiella pneumoniae CDC 129, ESBL/KPC",8 µg/mL
same,MIC,"Klebsiella pneumoniae; Klebsiella pneumoniae CDC 135, ESBL/VIM",1 µg/mL
same,MIC,"Klebsiella pneumoniae; Klebsiella pneumoniae CDC 138, ESBL/NDM",>8 µg/mL
same,MIC,"Klebsiella pneumoniae; Klebsiella pneumoniae CDC 158, ESBL/NDM/OXA",>8 µg/mL
same,MIC,"Klebsiella pneumoniae; Klebsiella pneumoniae MMX 9029, ESBL",0.015 µg/mL
same,MIC,Escherichia coli [3]; [16],≤0.008 µg/mL
same,MIC,Escherichia coli [3]; [17],≤0.008 µg/mL
same,MIC,"Escherichia coli [3]; Escherichia coli ATCC 35218, ESBL",≤0.008 µg/mL
same,MIC,"Escherichia coli [3]; Escherichia coli ATCC BAA-2471, NDM",>8 µg/mL
same,MIC,"Escherichia coli [3]; Escherichia coli CDC 114, ESBL/KPC",2 µg/mL
same,MIC,"Escherichia coli [3]; Escherichia coli CDC 118, ESBL/NDM",0.06 µg/mL
same,MIC,"Escherichia coli [3]; Escherichia coli CDC 435, NDM",>8 µg/mL
same,MIC,"Escherichia coli [3]; Escherichia coli CDC 451, KPC",1 µg/mL
same,MIC,"Escherichia coli [3]; Escherichia coli CDC 503, ESBL/NDM",8 µg/mL
same,MIC,"Escherichia coli [3]; Escherichia coli MMX 5745, KPC",2 µg/mL
same,MIC,"Escherichia coli [3]; Escherichia coli MMX 5755, ESBL",0.015 µg/mL
same,MIC,"Escherichia coli [3]; Escherichia coli MMX 5756, ESBL",≤0.008 µg/mL
same,MIC,"Escherichia coli [3]; Escherichia coli MMX 5758, ESBL",≤0.008 µg/mL
same,MIC,[4]; B. cenocepacia isolate 0548 (CIP-R),4 µg/mL
same,MIC,[4]; B. cenocepacia isolate 0813 (CPI-I),2 µg/mL
same,MIC,[4]; B. cenocepacia isolate 1631,4 µg/mL
same,MIC,[4]; B. cenocepacia isolate 1783,4 µg/mL
same,MIC,[4]; B. cenocepacia isolate 8555,4 µg/mL
same,MIC,[4]; B. cepacia isolate 0546,4 µg/mL
same,MIC,[4]; B. cepacia isolate 0547,2 µg/mL
same,MIC,[4]; B. cepacia isolate 1793,4 µg/mL
same,MIC,[4]; B. cepacia isolate 1794,4 µg/mL
same,MIC,[4]; B. cepacia isolate 9040,4 µg/mL
same,MIC,[4]; B. multivorans isolate 1580 (CIP-R),2 µg/mL
same,MIC,[4]; B. multivorans isolate 1791,4 µg/mL
same,MIC,"[4]; B. multivorans isolate 1795 (MEM-I, CIP-R)",8 µg/mL
same,MIC,[4]; B. multivorans isolate 5665 (CIP-I),2 µg/mL
same,MIC,[4]; B. multivorans isolate 8952 (CIP-I),2 µg/mL
same,MIC,[5]; B. cenocepacia isolate 0548,4 µg/mL
same,MIC,[5]; B. cenocepacia isolate 0813,2 µg/mL
same,MIC,[5]; B. cepacia isolate 0546,4 µg/mL
same,MIC,[5]; B. cepacia isolate 1793,4 µg/mL
same,MIC,[5]; B. multivorans isolate 1795,4 µg/mL
same,"MIC, CLSI QC range",P. aeruginosa [6]; Table 24,(0.12-1) μg/mL
same,"MIC, CLSI QC range",P. aeruginosa [6]; Table 26,(0.12-1) μg/mL
"CC(S)C(C)S.[Bi] (stereo not drawn) [BisBDT, bismuth-2,3-butanedithiol]",Expected MIC: goal,S. aureus ATCC 29213 [7],0.25 µg/mL
same,MIC values (range across isolates),N. gonorrhoeae,0.06 to 0.25 µg/mL
same,MIC,[8],4 µg/mL
same,MIC,Acinetobacter baumannii,0.5 µg/mL
same,reduction in viable biofilm cells,[9],5 log
same,MIC 24 hr,E. coli ATCC 25922 [10],0.5^a
same,bactericidal activity,[11],not bactericidal
same,more surviving in cultures with sputum,"[11]; PA01, 4 μg/mL, 10% CF sputum, 3-6 hours",0.5-0.8 log CFU/mL
same,killing over the assay,"[11]; PA01, 4 μg/mL, absence of sputum, 6 hour assay",about 1 log
same,time to sterilization below the limit of detection,"[11]; PA01, 20 μg/mL, with and without sputum",≤ 5 h
same,effect of CF patient sputum on bactericidal activity,[11],partially inhibited
same,"MIC 24 hr, second value of the pair x/y","Candida krusei; C. krusei ATCC 6258 (QC, Table 110), 24 hr, footnote b not given",1
same,"MIC 48 hr, second value of the pair x/y","Candida krusei; C. krusei ATCC 6258 (QC, Table 110), 48 hr, footnote b not given",4
same,"MIC 48 hr, first value of the pair x/y","Candida krusei; C. krusei ATCC 6258 (QC, Table 110), 48 hr, footnote b not given, probably MIC2",1
same,MIC,Candida krusei; read-out: MIC2 (50% inhibition),0.5 µg/mL
same,MIC,"Candida krusei; read-out: MIC2 (50% inhibition), C. krusei MMX 7125, Susceptible",0.5 µg/mL
same,MIC,"Candida krusei; read-out: MIC2 (50% inhibition), C. krusei MMX 7155, Susceptible",0.5 µg/mL
same,MIC,"Candida krusei; read-out: MIC2 (50% inhibition), C. krusei MMX 7563, Susceptible",0.5 µg/mL
same,MIC,"Candida krusei; read-out: MIC2 (50% inhibition), C. krusei MMX 9878, MICA-I, VORI-I",0.5 µg/mL
same,MIC,M. avium,1 µg/mL
"C1C[S][Bi]([S]CC[S][Bi]2[S]CC[S]2)[S]1 [BisEDT, bismuth-1,2-ethanedithiol]",Expected MIC: goal,S. aureus ATCC 29213 [7],0.25 to 0.5 µg/mL
same,"MIC, QC range",Escherichia coli [2]; [16],(0.5-4)^1 μg/mL
same,"MIC, QC range",Pseudomonas aeruginosa,(0.5-4) μg/mL
same,duration of initial distribution into tissues,"[12]; IV dosing, biphasic pattern",18 h
same,systemic levels lower than in the lung,[12]; inhalation dosing,about 10 ×
same,blood exposure,[12]; inhalation dosing 100 μg/kg,"sustained, moderate, blood exposure with relatively stable concentrations across time"
same,blood concentrations,[12]; oral dosing 250 μg/kg,"very low, but sustained and measurable"
same,bactericidal activity,[11],not bactericidal
same,effect of CF patient sputum on bactericidal activity,[11],partially inhibited
same,Expected MIC: acceptable range,E. coli ATCC 25922 [13],0.5 to 2 µg/mL
same,Expected MIC: goal,E. coli ATCC 25922 [13],1 µg/mL
same,"MIC, QC range",S. aureus ATCC 29213 [14],(0.12-1) μg/mL
same,"MIC, CLSI QC range",P. aeruginosa [6]; Table 24,(0.5-4)^2 μg/mL
same,"MIC, CLSI QC range",P. aeruginosa [6]; Table 26,(0.5-4) μg/mL
same,Expected MIC: acceptable range,P. aeruginosa [15],0.5 to 4 µg/mL
same,Expected MIC: goal,P. aeruginosa [15],1 to 2 µg/mL
